Like-named read-outs stand apart in the source and are kept apart here.
Legend:
[1] = for LogP: method [a]: LC-UV, acidic range, Table 1
Protocol: (§1) Measurement of LogP values was performed according to EEC directive 79/831 Annex V.A8 by HPLC (High Performance Liquid Chromatography) on reversed phase columns with the following methods:
(§2) [a] LogP value is determined by measurement of LC-UV, in anacidic range, with 0.1% formic acid in water and acetonitrile as eluent (linear gradient from 10% acetonitrile to 95% acetonitrile). [b] LogP value is determined by measurement of LC-UV, in a neutral range, with 0.001 molar ammonium acetate solution in water and acetonitrile as eluent (linear gradient from 10% acetonitrile to 95% acetonitrile). [c] LogP value is determined by measurement of LC-UV, in an acidic range, with 0.1% phosphoric acid and acetonitrile as eluent (linear gradient from 10% acetonitrile to 95% acetonitrile).
(§3) If more than one LogP value is available within the same method, all the values are given and separated by “+”.

Puccinia recondita = assay: In vivo preventive test on Puccinia recondita (brown rust on wheat); details: 264 h, read-out: efficacy
[2] = test system: Colletotrichum lindemuthianum; assay: Colletotrichum lindemuthianum in vitro cell test; assay type: cell-based; details: 144 h, read-out: efficacy
[3] = 500 ppm of active ingredient, wheat sprayed 24 hours before contamination, evaluated 11 days after the inoculation
[4] = 20 ppm of active ingredient, inhibition of fungal growth, 6 days incubation, liquid culture

Protocol for physchem: as §1, §2, §3

Compound | chromatographic logP (physchem) | pest or weed control at 500 ppm (Puccinia recondita; [3]) | inhibition of growth at 20 ppm [2, 4] | other results
OC1(C(F)(F)F)CC(c2ccc(-c3ccc4sccc4c3)cc2)=NO1 (stereo not shown) [Ia-108] | – | – | – | LogP [1]: 3.94^[a]
CCc1noc(-c2ccc(C(=O)/C=C(\O)C(F)(F)F)cc2)n1 [Compound 1b-02, 1-[4-(3-Ethyl-1,2,4-oxadiazol-5-yl)phenyl]-4,4,4-trifluoro-3-hydroxy-but-2-en-1-one] | 2.43 | – | – | –
CN(C)C(=O)Oc1ccc(C2=NOC(O)(C(F)(F)Cl)C2)cc1 (stereo not shown) [Ib-095, 4-{5-[Chloro(difluoro)methyl]-5-hydroxy-4,5-dihydro-1,2-oxazol-3-yl}phenyl dimethylcarbamate] | – | – | – | chromatographic logP [1]: 2.35; pest or weed control at 500 ppm (Puccinia recondita): 90 to 100%; inhibition of growth at 20 ppm [2]: 80 to 89%
CN(C(=O)c1ccc(C(=O)/C=C(\O)C(F)(F)F)cc1)c1ccccc1 [Compound 1b-01] | 2.17 | – | – | –
OC1(C(F)(F)F)CC(c2ccc(-c3ccc(F)cc3)cc2)=NO1 (stereo not shown) [Ia-075, 3-(4′-fluoro[biphenyl]-4-yl)-5-(trifluoromethyl)-4,5-dihydro-1,2-oxazol-5-ol] | 3.46 | 80 to 89% | 90 to 100% | –
CC(O)c1ccc(C2=NOC(O)(C(F)(F)F)C2)cc1 (stereo not shown) [Ia-044, 3-[4-(1-hydroxyethyl)phenyl]-5-(trifluoromethyl)-4,5-dihydro-1,2-oxazol-5-ol] | 1.78 | 90 to 100% | 80 to 89% | –
OC1(C(F)(F)F)CC(c2ccc(-c3cncnc3)cc2)=NO1 (stereo not shown) [Ia-087, 3-[4-(pyrimidin-5-yl)phenyl]-5-(trifluoromethyl)-4,5-dihydro-1,2-oxazol-5-ol] | 1.86 | 90 to 100% | 90 to 100% | –
OC1(C(F)(F)F)CC(c2ccc(C#CC3CC3)cc2)=NO1 (stereo not shown) [Ia-031, 3-[4-(cvclopropvlethvnvl)phenyl]-5-(trifluoromethyl)-4,5-dihydro-1,2-oxazol-5-ol] | 3.41 | 80 to 89% | 90 to 100% | –
CON=C(C)c1ccc(C2=NOC(O)(C(F)(F)F)C2)cc1 (stereo not shown) [Ia-037, 3-[4-(N-methoxvethanimidovl)phenyl]-5-(trifluoromethyl)-4,5-dihydro-1,2-oxazol-5-ol] | 2.98 | – | 90 to 100% | –
CCc1noc(-c2ccc(C3=NOC(OC(C)=O)(C(F)(F)F)C3)cc2)n1 (stereo not shown) [Ia-095, [3-[4-(3-Ethyl-1,2,4-oxadiazol-5-yl)phenyl]-5-(trifluoromethyl)-4H-isoxazol-5-yl]acetate] | – | – | – | LogP [1]: 3.68^[a]
COC(=O)c1ccc(C2=NOC(O)(C(F)(F)Cl)C2)cc1 (stereo not shown) [Ib-049, methyl 4-{5-[chloro(difluoro)methyl]-5-hydroxy-4,5-dihydro-1,2-oxazol-3-yl}benzoate] | 2.55 | – | – | –
NCc1ccc(C2=NOC(O)(C(F)(F)F)C2)cc1 (stereo not shown) [Ia-112, 3-(4-Aminomethyl-phenyl)-5-trifluoromethyl-4,5-dihydro-isoxazol-5-ol] | 0.63 | 90 to 100% | – | –
CC(=O)c1ccc(C2=NOC(O)(C(F)(F)F)C2)cc1 (stereo not shown) [Ia-038, 1-{4-[5-hydroxy-5-(trifluoromethyl)-4,5-dihydro-1,2-oxazol-3-yl]phenyl}ethanone] | 2.11 | 90 to 100% | 90 to 100% | –
Nc1ccc(C2=NOC(O)(C(F)(F)F)C2)cc1 (stereo not shown) [Ia-114, 3-(4-aminophenyl)-4,5-dihydro-5-(trifluoromethyl)-5-isoxazolol] | 1.49 | 90 to 100% | 80 to 89% | –
CCc1noc(-c2ccc(C3=NOC(O)(C(F)(F)F)C3)cc2)n1 (stereo not shown) [Ia-093, 3-[4-(3-Ethyl-1,2,4-oxadiazol-5-yl)phenyl]-5-(trifluoromethyl)-4H-isoxazol-5-ol] | 2.88 | 90 to 100% | 90 to 100% | –
Cc1ccc(C)n1-c1ccc(C(=O)CC(=O)C(F)(F)F)cc1 [Compound 1b-35, 1-[4-(2,5-dimethyl-1H-pyrrol-1-yl)phenyl]-4,4,4-trifluoro-1,3-butanedione] | 3.21 | – | – | –
COC(=O)c1ccc(C(=O)CC(=O)C(F)(F)Cl)cc1 [Compound 1b-04, methyl 4-(4-chloro-4,4-difluoro-3-oxobutanoyl)benzoate] | 2.11 | – | – | –
O=C(O)c1ccc(C2=NOC(O)(C(F)(F)Cl)C2)cc1 (stereo not shown) [Ib-048, 4-{5-[chloro(difluoro)methyl]-5-hydroxy-4,5-dihydro-1,2-oxazol-3-yl}benzoic acid] | 1.84 | – | – | –
O=C(Nc1ccc(F)cc1F)c1ccc(C2=NOC(O)(C(F)(F)Cl)C2)cc1 (stereo not shown) [Ib-030, 4-{5-[chloro(difluoro)methyl]-5-hydroxy-4,5-dihydro-1,2-oxazol-3-vl}-N-(2,4-difluorophenyl)benzamide] | 2.76 | – | – | –

Reference: patent US20210009575A1, “HYDROXYISOXAZOLINES AND DERIVATIVES THEREOF” (Bayer Aktiengesellschaft, priority 2017, published 2021)
